{"source": "patent US7833532B2", "about": "“Immunogenic lipopeptides comprising T-helper and cytotoxic T lymphocyte (CTL) epitopes” (The Council of The Queensland Institute of Medical Research, priority 2002, dated 2010)", "tested_on": "D1 cells", "experiment": "Maturation of D1 dendritic cells (surface MHC class II, flow cytometry)", "assay_type": "cell-based, BALB/c mouse", "conditions": "overnight incubation, 0.45 nmoles/mL; […]", "data": [{"sequence": "ALNNRFQIKGVELKSKTYQRTRALV [[Th]-Lys-[CTL]]", "values": [{"measurement": "maturation of D1 cells (percentage expressing high levels of surface MHC class II)", "value": "≤ 26", "unit": "%"}]}]}
